Where two headings read alike, the source gives them in different places.
What was measured:
Experiment in all cases: Bioluminescence emission scan
Assay type in all cases: biochemical
L286M + S347A luciferase = target: T1, L286M + S347A luciferase (Photinus pyralis, UniProt P08659, L286M/S347A)
T1 construct: The full firefly (Photinus pyralis) luciferase gene was PCR amplified from pGL3 (Promega); GST (N, cleaved yes); made in house; host or cells: E. coli JM109
Protocol: (§1) Purified mutant luciferases were used in bioluminescence emission and burst kinetics scans.
(§2) Luciferase was rapidly injected into a cuvette containing substrate, and the emission from 400-800 nm was recorded in a SPEX FluoroMax-3 fluorimeter with closed excitation slits.

T251N luciferase = target: T2, T251N luciferase (Photinus pyralis, UniProt P08659, T251N)
T2 construct: The full firefly (Photinus pyralis) luciferase gene was PCR amplified from pGL3 (Promega); GST (N, cleaved yes); made in house; host or cells: E. coli JM109
Protocol: as §1, §2

T251Q luciferase = target: T3, T251Q luciferase (Photinus pyralis, UniProt P08659, T251Q)
T3 construct: The full firefly (Photinus pyralis) luciferase gene was PCR amplified from pGL3 (Promega); GST (N, cleaved yes); made in house; host or cells: E. coli JM109
Protocol: as §1, §2

F247A luciferase = target: T4, F247A luciferase (Photinus pyralis, UniProt P08659, F247A)
T4 construct: The full firefly (Photinus pyralis) luciferase gene was PCR amplified from pGL3 (Promega); GST (N, cleaved yes); made in house; host or cells: E. coli JM109
Protocol: as §1, §2

F247L L286M luciferase = target: T5, F247L L286M luciferase (Photinus pyralis, UniProt P08659, F247L/L286M)
T5 construct: The full firefly (Photinus pyralis) luciferase gene was PCR amplified from pGL3 (Promega); GST (N, cleaved yes); made in house; host or cells: E. coli JM109
Protocol: as §1, §2

S347T luciferase = target: T6, S347T luciferase (Photinus pyralis, UniProt P08659, S347T)
T6 construct: The full firefly (Photinus pyralis) luciferase gene was PCR amplified from pGL3 (Promega); GST (N, cleaved yes); made in house; host or cells: E. coli JM109
Protocol: as §1, §2

F247S luciferase = target: T7, F247S luciferase (Photinus pyralis, UniProt P08659, F247S)
T7 construct: The full firefly (Photinus pyralis) luciferase gene was PCR amplified from pGL3 (Promega); GST (N, cleaved yes); made in house; host or cells: E. coli JM109
Protocol: as §1, §2

F247V luciferase = target: T8, F247V luciferase (Photinus pyralis, UniProt P08659, F247V)
T8 construct: The full firefly (Photinus pyralis) luciferase gene was PCR amplified from pGL3 (Promega); GST (N, cleaved yes); made in house; host or cells: E. coli JM109
Protocol: as §1, §2

R218K luciferase = target: T9, R218K luciferase (Photinus pyralis, UniProt P08659, R218K)
T9 construct: The full firefly (Photinus pyralis) luciferase gene was PCR amplified from pGL3 (Promega); GST (N, cleaved yes); made in house; host or cells: E. coli JM109
Protocol: as §1, §2

T9 sequence (P08659 whole entry R218K): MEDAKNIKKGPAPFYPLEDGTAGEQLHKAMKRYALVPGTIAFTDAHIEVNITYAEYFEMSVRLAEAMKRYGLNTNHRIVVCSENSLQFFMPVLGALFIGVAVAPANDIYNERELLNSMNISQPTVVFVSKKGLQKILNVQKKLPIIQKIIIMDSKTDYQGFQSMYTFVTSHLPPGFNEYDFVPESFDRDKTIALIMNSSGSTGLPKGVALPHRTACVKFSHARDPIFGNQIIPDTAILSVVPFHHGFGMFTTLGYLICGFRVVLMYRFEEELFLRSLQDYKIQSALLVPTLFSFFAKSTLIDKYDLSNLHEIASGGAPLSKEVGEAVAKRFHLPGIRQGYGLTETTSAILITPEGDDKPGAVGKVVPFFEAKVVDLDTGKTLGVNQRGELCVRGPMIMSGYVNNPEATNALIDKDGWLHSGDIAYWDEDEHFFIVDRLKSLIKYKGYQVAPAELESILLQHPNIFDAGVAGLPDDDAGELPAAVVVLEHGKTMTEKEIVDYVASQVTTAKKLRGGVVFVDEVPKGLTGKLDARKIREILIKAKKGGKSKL
T1 sequence (P08659 whole entry L286M/S347A): as the sequence (P08659 whole entry R218K) above, with K218R, L286M, S347A counted along it
T8 sequence (P08659 whole entry F247V): as the sequence (P08659 whole entry R218K) above, with K218R, F247V counted along it
T2 sequence (P08659 whole entry T251N): as the sequence (P08659 whole entry R218K) above, with K218R, T251N counted along it
T4 sequence (P08659 whole entry F247A): as the sequence (P08659 whole entry R218K) above, with K218R, F247A counted along it
T3 sequence (P08659 whole entry T251Q): as the sequence (P08659 whole entry R218K) above, with K218R, T251Q counted along it
T6 sequence (P08659 whole entry S347T): as the sequence (P08659 whole entry R218K) above, with K218R, S347T counted along it
T5 sequence (P08659 whole entry F247L/L286M): as the sequence (P08659 whole entry R218K) above, with K218R, F247L, L286M counted along it
T7 sequence (P08659 whole entry F247S): as the sequence (P08659 whole entry R218K) above, with K218R, F247S counted along it

O=C(O)[C@H]1CSC(c2nc3cc4c(cc3s2)NCC4)=N1 [CycLuc1]
Maximum Emission Wavelength of Selected Substrate (L286M + S347A luciferase): 595 nm
Wavelength at Max. Emission (T251N luciferase): 604 nm
Wavelength at Max. Emission (T251Q luciferase): 612 nm
Wavelength at Max. Emission (F247A luciferase): 605 nm
Wavelength at Max. Emission (F247L L286M luciferase): 603 nm
Wavelength at Max. Emission (S347T luciferase): 601 nm
Wavelength at Max. Emission (F247S luciferase): 607 nm
Wavelength at Max. Emission (F247V luciferase): 603 nm
Maximum Emission Wavelength of Selected Substrate (R218K luciferase): 609 nm
Maximum Emission Wavelength of Selected Substrate (R218K luciferase; listed as Cyc1): 605 nm
